Test [1] has as its system A431 skin carcinoma cells. Put plainly: Cancer screening, MTT growth inhibition. The class given is cell-based. The settings on record: 72-h exposure; for inhibition at 25 µM / GI50: Homo sapiens; for inhibition at 25 µM: A-431, 25 µM, read-out: A431 Skin Carcinoma, Percentage (%) Cell Growth Inhibition in response to 25 µM of Drug; for GI50: A-431, dose response, read-out: A431 Skin Carcinoma, GI50 = Concentration (µM) that inhibits cell growth by 50%. Here is the method:
(§1) Two assays were run: the dose screen to ascertain cell growth inhibition in response to 25 µM of drug (on a blue background) and the dose response (GI50) (on a green background). For a discussion of BNCT as a radiotherapeutic modality, a rationalisation is provided here.
(§2) All test agents were prepared as stock solutions (20 mM) in dimethyl sulfoxide (DMSO) and stored at −20 °C. Cell lines used in the study included HT29, (colorectal carcinoma); U87, SJ-G2, (glioblastoma); MCF-7, (breast carcinoma); A2780 (ovarian carcinoma); H460 (lung carcinoma); A431 (skin carcinoma); Du145 (prostate carcinoma); BE2-C (neuroblastoma) and MiaPaCa-2 (pancreatic carcinoma); together with the one non-tumour derived normal breast cell line (MCF10A). All cell lines were incubated in a humidified atmosphere 5% CO2 at 37 °C. The cancer cell lines were maintained in Dulbecco’s modified Eagle’s medium (DMEM; Sigma, Australia) supplemented with foetal bovine serum (10%), sodium pyruvate (10 mM), penicillin (100 IUmL^−1), streptomycin (100 µg mL^−1), and L-glutamine (2 mM).
(§3) Growth inhibition was determined by plating cells in duplicate in medium (100 µL) at a density of 2500–4000 cells per well in 96-well plates. On day 0 (24 h after plating), when the cells are in logarithmic growth, medium (100 µL) with or without the test agent was added to each well. After a 72-h drug exposure, growth inhibitory effects were evaluated using the MTT (3-(4,5-dimethyltiazol-2-yl)-2,5-diphenyltetrazolium bromide) assay and absorbance read at 540 nm. The percentage growth inhibition was calculated at a fixed concentration of 25 µM, based on the difference between the optical density values on day 0 and those at the end of drug exposure. Each data point is the mean ± the standard error of the mean (SEM) calculated from three replicates, which were performed on separate occasions and separate cell line passages.

For test [2], the system named is A2780 ovarian carcinoma cells. In words: Cancer screening, MTT growth inhibition. The class given is cell-based. The settings on record: 72-h exposure; for inhibition at 25 µM / GI50: Homo sapiens; for inhibition at 25 µM: A2780, 25 µM, read-out: A2780 Ovarian Carcinoma, Percentage (%) Cell Growth Inhibition in response to 25 µM of Drug; for GI50: A2780, dose response, read-out: A2780 Ovarian Carcinoma, GI50 = Concentration (µM) that inhibits cell growth by 50%. Here is the method:
as §1, §2, §3

Test [3] deals with H460 lung carcinoma cells. In words: Cancer screening, MTT growth inhibition. The settings on record: 72-h exposure; for inhibition at 25 µM / GI50: Homo sapiens; for inhibition at 25 µM: NCI-H460, 25 µM, read-out: H460 Lung Carcinoma, Percentage (%) Cell Growth Inhibition in response to 25 µM of Drug; for GI50: NCI-H460, dose response, read-out: H460 Lung Carcinoma, GI50 = Concentration (µM) that inhibits cell growth by 50%. The class given is cell-based. Here is the method: as §1, §2, §3

Test [4] relates to HT29 colon carcinoma cells. In words: Cancer screening, MTT growth inhibition. The class given is cell-based. The following applies: 72-h exposure; for inhibition at 25 µM / GI50: Homo sapiens; for inhibition at 25 µM: HT-29, 25 µM, read-out: HT29 Colon Carcinoma, Percentage (%) Cell Growth Inhibition in response to 25 µM of Drug; for GI50: HT-29, dose response, read-out: HT29 Colon Carcinoma, GI50 = Concentration (µM) that inhibits cell growth by 50%. Here is the method: as §1, §2, §3

The target of the next test is T1, α-D-glucosidase (yeast) (Saccharomyces cerevisiae, UniProt P53341).
T1 construct: purchased Sigma
In words: Glycosidase inhibition, Table 7. In kind it is biochemical. The settings on record: 1 mg/mL aqueous solution added, 27 °C, run in water; for inhibition at 1000 µg/mL (stock): read-out: α-D-Glucosidase Yeast, percentage inhibition. Here is the method:
(§4) All enzymes and para-nitrophenyl substrates were purchased from Sigma. Enzymes were assayed at 27 °C in citric acid (0.1M)/disodium hydrogen phosphate (0.2 M) buffers at the optimum pH for the enzyme. The incubation mixture consisted of […] enzyme solution, […] of 1 mg/mL aqueous solution of extract, and […] of the appropriate 5 mM para-nitrophenyl substrate made up in buffer at the optimum pH for the enzyme. The reactions were stopped by the addition of […] 0.4 M glycine (pH 10.4) during the exponential phase of the reaction, which had been determined at the beginning using uninhibited assays in which water replaced the inhibitor. Final absorbances were read at 405 nm using a Versamax microplate reader (Molecular Devices). Assays were carried out in triplicate, and the values given are the means of the three replicates per assay. All reactions run in water.

Test [5] relates to β-D-glucuronidase (bovine liver). In words: Glycosidase inhibition, Table 7. The class given is biochemical. The settings on record: 1 mg/mL aqueous solution added, 27 °C, run in water. Here is the method: as §4
A further test deals with β-D-glucosidase (almond). In words: Glycosidase inhibition, Table 7. The class given is biochemical. The following applies: 1 mg/mL aqueous solution added, 27 °C, run in water. Here is the method:
as §4

Test [6] has as its system MCF-7 breast carcinoma cells. Put plainly: Cancer screening, MTT growth inhibition. The class given is cell-based. The settings on record: for inhibition at 25 µM: Homo sapiens, MCF7, 72-h exposure, read-out: MCF-7 Breast Carcinoma, Percentage (%) Cell Growth Inhibition in response to 25 µM of Drug. Here is the method:
as §1, §2, §3

Test [7] deals with Du145 prostate carcinoma cells. In words: Cancer screening, MTT growth inhibition. The class given is cell-based. The following applies: for inhibition at 25 µM: Homo sapiens, DU-145, 72-h exposure, read-out: Du145 Prostate Carcinoma, Percentage (%) Cell Growth Inhibition in response to 25 µM of Drug. Here is the method:
as §1, §2, §3

The test system of a further test is U87 glioblastoma cells. Put plainly: Cancer screening, MTT growth inhibition. In kind it is cell-based. The following applies: 72-h exposure; for inhibition at 25 µM: read-out: U87 Glioblastoma, Percentage (%) Cell Growth Inhibition in response to 25 µM of Drug. Here is the method:
as §1, §2, §3

The test system of a further test is SJ-G2 glioblastoma cells. Put plainly: Cancer screening, MTT growth inhibition. The settings on record: for inhibition at 25 µM: SJ-G2, 72-h exposure, read-out: SJ-G2 Glioblastoma, Percentage (%) Cell Growth Inhibition in response to 25 µM of Drug. In kind it is cell-based. Here is the method:
as §1, §2, §3

Test [8] concerns panel of eight glycosidases. Put plainly: Glycosidase inhibition, whole panel of Table 7. The class given is biochemical. The settings on record: 1 mg/mL aqueous solution added. Here is the method: as §4

These results are taken from article PMC12472391, “Borylated Five-Membered Ring Iminosugars: Synthesis, Spectroscopic Analysis, and Biological Evaluation for Glycosidase Inhibition and Anticancer Properties for Application in Boron Neutron Capture Therapy (BNCT)—Part 1” (Pharmaceuticals, 2025).

Bounds are passed on as bounds.

As usually defined, the inhibition is the relative decrease from the control value, in per cent.

T1 sequence (P53341 whole entry): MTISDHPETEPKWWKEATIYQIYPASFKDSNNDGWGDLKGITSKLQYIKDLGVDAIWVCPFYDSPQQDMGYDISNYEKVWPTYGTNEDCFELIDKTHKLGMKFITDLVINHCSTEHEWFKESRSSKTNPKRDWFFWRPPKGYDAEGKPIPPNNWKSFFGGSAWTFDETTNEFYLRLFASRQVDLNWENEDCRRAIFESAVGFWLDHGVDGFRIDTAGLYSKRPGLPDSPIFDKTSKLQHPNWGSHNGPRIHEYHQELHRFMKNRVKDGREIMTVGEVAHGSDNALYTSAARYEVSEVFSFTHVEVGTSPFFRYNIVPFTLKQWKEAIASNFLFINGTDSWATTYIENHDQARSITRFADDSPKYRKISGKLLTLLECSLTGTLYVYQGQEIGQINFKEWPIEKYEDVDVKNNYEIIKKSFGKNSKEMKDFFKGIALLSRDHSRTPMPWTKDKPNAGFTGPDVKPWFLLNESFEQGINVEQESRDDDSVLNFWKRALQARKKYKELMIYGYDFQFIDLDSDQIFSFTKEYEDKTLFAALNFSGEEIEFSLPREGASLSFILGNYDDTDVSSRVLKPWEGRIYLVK

In the case of `OC[C@H](O)[C@@H]1[C@H](O)[C@H](O)CN1Cc1ccccc1` [Compound 5, N-Benzyl-1,4-dideoxy-1,4-imino-L-gulitol], the inhibition at 25 µM in test [1] worked out at 2%; in test [2] it was 13 ± 6%; in test [3] it was 0%; in test [4] it was 2 ± 3%. The GI50 in test [1], in test [2], in test [3] and in test [4] was greater than 50 µM each time. Besides, the inhibition at 1000 µg/mL (stock) at α-D-glucosidase (yeast) was found to be 5.5%. Moreover, the “β-D-Glucuronidase Bovine Liver, percentage inhibition” value in test [5] was −2.2%. For the same molecule, in the test with β-D-glucosidase (almond), the “β-D-Glucosidase Almond, percentage inhibition” value came to 17.1%.
With `N[C@@H](Cc1ccc(B(O)O)cc1)C(=O)O` [BPA, 4-borono-L-phenylalanine, reference compound], the inhibition at 25 µM in test [1] is 4%; in test [6] it was less than 0%; in test [7], 19%; with U87 glioblastoma cells, less than 0%; in test [2] it was 4%; in [3], 7%. Besides, the results for the inhibition at 25 µM (in the test on SJ-G2 glioblastoma cells; in test [4]) were 5% and 14%, respectively. Besides, the inhibition at 1000 µg/mL (stock) at α-D-glucosidase (yeast) was found to be 2.9%. In addition, the “β-D-Glucuronidase Bovine Liver, percentage inhibition” value in [5] was −0.7%. Moreover, in the test on β-D-glucosidase (almond), the “β-D-Glucosidase Almond, percentage inhibition” value amounted to 3.9%. Moreover, the “inhibitions across the panel (Table 7)” value in test [8] was “below 30%”.
On to `OC[C@H](O)[C@@H]1[C@H](O)[C@H](O)CN1Cc1ccc(B(O)O)cc1` [para 8, N-(4-Methylphenylboronic acid)-1,4-dideoxy-1,4-imino-L-gulitol], for which the inhibition at 25 µM came to 0% in test [1], 14 ± 7% in [2], 1 ± 2% in test [3] and 5 ± 2% in test [4]. Further, the GI50 in test [1], in [2], in test [3] and in test [4] was greater than 50 µM throughout. At α-D-glucosidase (yeast), the inhibition at 1000 µg/mL (stock) is 9.7%. The “β-D-Glucuronidase Bovine Liver, percentage inhibition” value in test [5] came to 2.4%. In addition, the “β-D-Glucosidase Almond, percentage inhibition” value in the test with β-D-glucosidase (almond) was 23.9%.
As to `OC1O[C@@H]2[C@H]([C@H]1O)N(Cc1ccccc1)C[C@H]2O` (stereo partly drawn) [Compound 4, N-Benzyl-3,6-dideoxy-3,6-imino-D-gulofuranose], the inhibition at 25 µM in [1] came out at 11%; in [6] it was 9%; in test [7], 0%; in the test with U87 glioblastoma cells, 8%; in test [2], 15%; in test [3], 8%. For the same molecule, the inhibition at 25 µM is 12% in the test with SJ-G2 glioblastoma cells and 11% in test [4]. For the same molecule, the inhibition at 1000 µg/mL (stock) on α-D-glucosidase (yeast) is -79%. In test [5], the “β-D-Glucuronidase Bovine Liver, percentage inhibition” value was −4.3%. The “β-D-Glucosidase Almond, percentage inhibition” value with β-D-glucosidase (almond) worked out at 58.1%.
On to `CC1(C)O[C@H]2O[C@H]3[C@@H]([C@H]2O1)N(Cc1ccc(B2OC(C)(C)C(C)(C)O2)cc1)C[C@H]3O` [para 6, N-(4-Methylphenylboronic acid pinacol ester)-3,6-dideoxy-3,6-imino-1,2-O-isopropylidene-α-D-gulofuranose], for which the inhibition at 25 µM was 6% in [1]; 3% in test [6]; less than 0% in [7]; 7% in the test with U87 glioblastoma cells; 14% in test [2]; 10% in [3]. Moreover, the inhibition at 25 µM with SJ-G2 glioblastoma cells was determined as 9%; in test [4], 8%.
For `N[C@@H](Cc1ccc(B(O)O)cc1)C(=O)O` [^10B-BPA, reference compound], in test [1] (25 µM), the “A431 Skin Carcinoma, Percentage (%) Cell Growth Inhibition in response to 25 µM of Drug” value is reported as “* 4 ± 4%”. Also, the “MCF-7 Breast Carcinoma, Percentage (%) Cell Growth Inhibition in response to 25 µM of Drug” value in [6] (72-h exposure) was “* 1 ± 3%”. For the same molecule, in test [7] (72-h exposure), the “Du145 Prostate Carcinoma, Percentage (%) Cell Growth Inhibition in response to 25 µM of Drug” value is on record as “* 15 ± 9%”. Also, in the test on U87 glioblastoma cells, the “U87 Glioblastoma, Percentage (%) Cell Growth Inhibition in response to 25 µM of Drug” value was “* <0%”. Moreover, in test [2] (25 µM), the “A2780 Ovarian Carcinoma, Percentage (%) Cell Growth Inhibition in response to 25 µM of Drug” value is listed as “* 8 ± 4%”. Further, the “H460 Lung Carcinoma, Percentage (%) Cell Growth Inhibition in response to 25 µM of Drug” value in test [3] (25 µM) is “* 8 ± 5%”. Besides, the “SJ-G2 Glioblastoma, Percentage (%) Cell Growth Inhibition in response to 25 µM of Drug” value in the test on SJ-G2 glioblastoma cells (72-h exposure) is reported as “* 5 ± 10%”. Also, in test [4] (25 µM), the “HT29 Colon Carcinoma, Percentage (%) Cell Growth Inhibition in response to 25 µM of Drug” value is “* 15 ± 4%”. Besides, the “α-D-Glucosidase Yeast, percentage inhibition” value on α-D-glucosidase (yeast) worked out at 3.4%. In test [5], the “β-D-Glucuronidase Bovine Liver, percentage inhibition” value is −1%. In addition, the “β-D-Glucosidase Almond, percentage inhibition” value in the test with β-D-glucosidase (almond) was found to be 3%. Besides, the “inhibitions across the panel (Table 7)” value in [8] is “below 30%”.
Consider `CC1(C)O[C@H]2O[C@H]3[C@@H]([C@H]2O1)N(Cc1ccccc1)C[C@H]3O` [Compound 3, N-Benzyl-3,6-dideoxy-3,6-imino-1,2-O-isopropylidene-α-D-gulofuranose], for which the inhibition at 25 µM was 7% in [1]; 7% in test [6]; less than 0% in [7]; 5% in the test on U87 glioblastoma cells; 11% in test [2]; 9% in test [3]. Moreover, the inhibition at 25 µM (in the test on SJ-G2 glioblastoma cells; in [4]) was 10% each time. On α-D-glucosidase (yeast), the inhibition at 1000 µg/mL (stock) is -89%. Moreover, in test [5], the “β-D-Glucuronidase Bovine Liver, percentage inhibition” value is listed as −0.2%. Further, in the test with β-D-glucosidase (almond), the “β-D-Glucosidase Almond, percentage inhibition” value is on record as −8.3%.
For the molecule `OB(O)c1ccc(CN2CC(O)C3OC(O)C(O)C32)cc1` [para 7, N-(4-Methylphenylboronic acid)-3,6-dideoxy-3,6-imino-D-gulofuranose], the inhibition at 25 µM came to 9 ± 5% in test [1], 27 ± 2% in test [2], 9 ± 6% in test [3] and 15 ± 3% in test [4]. Besides, the GI50 in test [1], in test [2], in test [3] and in test [4] was greater than 50 µM each time. For the same molecule, at α-D-glucosidase (yeast), the inhibition at 1000 µg/mL (stock) stood at 4.2%. Also, the “β-D-Glucuronidase Bovine Liver, percentage inhibition” value in [5] was 1.1%. For the same molecule, the “β-D-Glucosidase Almond, percentage inhibition” value in the test with β-D-glucosidase (almond) amounted to 68.1%.
